Several values for one entry are separate records, joined by “and”; a condition that tells them apart may be missing. Identical values can stand only once. Like-named read-outs stand apart in the source and are kept apart here.
What was measured:
[1] = system: HIV-1 LAI; assay: HIV-1 LAI infectivity assay with β-galactosidase readout (Experiment 5); assay type: cell-based, human immunodeficiency virus type 1 (HIV-1) LAI strain; conditions: for HIV infection blocked by control antiviral: 0.5 μM
[2] = system: HIV-1 LAI; conditions: for HIV Infectivity in HeLa CD4 βgal cells (β-gal units) - antiviral control / HIV Infectivity in HeLa CD4 βgal cells, percentage of vehicle - antiviral control: single data point
[3] = system: HeLa-CD4-βgal cells
[4] = in vitro; conditions: human, uninfected HeLa-CD4-βgal cells
[5] = in vitro; conditions: human, uninfected HeLa-CD4-βgal cells; remark: listed apart in the source
[6] = XTT viability (cytotoxicity) assay, uninfected HeLa-CD4-βgal cells (Experiment 4); conditions: human, uninfected HeLa-CD4-βgal cells

## enfuvirtide
[1]
  block of HIV infection by control inhibitor: completely blocked HIV infection
  HIV infection blocked by control antiviral: ~100%
[1]; listed as T20
  HIV infection blocked by control antiviral: over 99%
[1]; control antiviral 0.5 μM, duplicate data points
  HIV-1 Infectivity in HeLa-CD4-βgal cells (% vehicle): 0.0 % vehicle
[1]; control antiviral 0.5 μM, individual values
  HIV Infectivity in HeLa CD4 βgal cells (β-galactosidase units): 3,953 RLU and 3,657 RLU
[2]
  HIV Infectivity in HeLa CD4 βgal cells (β-galactosidase units): 3,399 RLU and 4,452 RLU
  HIV Infectivity in HeLa-CD4-βgal cells (% vehicle): 0.1 % vehicle
[2]; 0.00005 μM
  HIV Infectivity in HeLa CD4 βgal cells (β-gal units) - antiviral control: 1,159,781 RLU
  HIV Infectivity in HeLa CD4 βgal cells, percentage of vehicle - antiviral control: 102.2 % vehicle
[2]; 0.0003 μM
  HIV Infectivity in HeLa CD4 βgal cells (β-gal units) - antiviral control: 1,083,305 RLU
  HIV Infectivity in HeLa CD4 βgal cells, percentage of vehicle - antiviral control: 95.4 % vehicle
[2]; 0.001 μM
  HIV Infectivity in HeLa CD4 βgal cells (β-gal units) - antiviral control: 1,061,348 RLU
  HIV Infectivity in HeLa CD4 βgal cells, percentage of vehicle - antiviral control: 93.5 % vehicle
[2]; 0.006 μM
  HIV Infectivity in HeLa CD4 βgal cells (β-gal units) - antiviral control: 518,832 RLU
  HIV Infectivity in HeLa CD4 βgal cells, percentage of vehicle - antiviral control: 45.5 % vehicle
[2]; 0.03 μM
  HIV Infectivity in HeLa CD4 βgal cells (β-gal units) - antiviral control: 73,650 RLU
  HIV Infectivity in HeLa CD4 βgal cells, percentage of vehicle - antiviral control: 6.2 % vehicle
[2]; 0.2 μM
  HIV Infectivity in HeLa CD4 βgal cells (β-gal units) - antiviral control: 19,736 RLU
  HIV Infectivity in HeLa CD4 βgal cells, percentage of vehicle - antiviral control: 1.5 % vehicle
[2]; 0.5 μM
  HIV infection blocked by control antivirals: ~100%
[2]; 0.8 μM
  HIV Infectivity in HeLa CD4 βgal cells (β-gal units) - antiviral control: 2,604 RLU
  HIV Infectivity in HeLa CD4 βgal cells, percentage of vehicle - antiviral control: 0.0 % vehicle
[2]; 4.0 μM
  HIV Infectivity in HeLa CD4 βgal cells (β-gal units) - antiviral control: 1,950 RLU
  HIV Infectivity in HeLa CD4 βgal cells, percentage of vehicle - antiviral control: −0.1 % vehicle
[2]; 20 μM
  HIV Infectivity in HeLa CD4 βgal cells (β-gal units) - antiviral control: 1,538 RLU
  HIV Infectivity in HeLa CD4 βgal cells, percentage of vehicle - antiviral control: −0.1 % vehicle
[3]
  loss of cell viability with control inhibitor: minimal loss of cell viability
[4]
  viability at 48 h, 5e-05 µM: 87.9%
  viability at 48 h, 0.0003 µM: 87.4%
  viability at 48 h, 0.001 µM: 81.4%
  viability at 48 h, 0.006 µM: 83.7%
  viability at 48 h, 0.03 µM: 79.6%
  viability at 48 h, 0.2 µM: 82.5%
  viability at 48 h, 0.8 µM: 83.8%
  viability at 48 h, 4 µM: 74.4%
  viability at 48 h, 20 µM: 57.1%
[5]
  viability at 48 h, 0.5 µM: 93.1 ± 2.3%
[6]
  CC50 at 48 h: > 20 µM
